Source: patent US6864261B2, “Therapeutic agents useful for treating pain” (Euro-Celtique S.A., priority 2002, dated 2005)

Target: T1, mGluR5 (Rattus norvegicus, UniProt P31424)
T1 construct: The procedure allows the expression of the mGluR5 receptor by astrocytes; endogenous in cells; host or cells: secondary astrocyte cultures from cortices of Sprague-Dawley E18 embryos, cultured with EGF
Test: Inhibition of glutamate induced calcium mobilization in astrocytes expressing mGluR5 (Fluo-4, Fluorometric Imaging Plate reader)
Format: cell-based
Conditions: final glutamate 10 mM (FIG. 1 legend: 10 μM), mean of 3 experiments
Protocol: Cell cultures: Primary glial cultures were prepared from cortices of Sprague-Dawley 18 days old embryos. The cortices were dissected and then dissociated by trituration. The resulting cell homogenate was plated onto poly-D-lysine precoated T175 flasks (BIOCOAT, commercially available from Becton Dickinson and Company Inc. of Franklin Lakes, N.J.) in Dulbecco's Modified Eagle's Medium (“DMEM,” pH 7.4), buffered with 25 mM HEPES, and supplemented with 15% fetal calf serum (“FCS,” commercially available from Hyclone Laboratories Inc. of Omaha, Nebr.), and incubated at 37° C. and 5% CO2. After 24 hours, FCS supplementation was reduced to 10%. […]
Assay Protocol: After 3-5 days incubation with EGF, the astrocytes were washed with 127 mM NaCl, 5 mM KCl, 2 mM MgCl2, […] NaH2PO4, 2 mM CaCl2, 5 mM NaHCO3, 8 mM HEPES, 10 mM Glucose at pH 7.4 (“Assay Buffer”) and loaded with the dye Fluo-4 (commercially available from Molecular Probes Inc. of Eugene, Oreg.) using 0.1 mL of Assay Buffer containing Fluo-4 ([…]). […] The plates containing the astrocytes were then transferred to a Fluorometric Imaging Plate reader (commercially available from Molecular Devices Corporation of Sunnyvale, Calif.) for the assessment of calcium mobilization flux in the presence of glutamate and in the presence or absence of antagonist. […] In each experiment each data point was determined two times.

T1 sequence (P31424 21-1203): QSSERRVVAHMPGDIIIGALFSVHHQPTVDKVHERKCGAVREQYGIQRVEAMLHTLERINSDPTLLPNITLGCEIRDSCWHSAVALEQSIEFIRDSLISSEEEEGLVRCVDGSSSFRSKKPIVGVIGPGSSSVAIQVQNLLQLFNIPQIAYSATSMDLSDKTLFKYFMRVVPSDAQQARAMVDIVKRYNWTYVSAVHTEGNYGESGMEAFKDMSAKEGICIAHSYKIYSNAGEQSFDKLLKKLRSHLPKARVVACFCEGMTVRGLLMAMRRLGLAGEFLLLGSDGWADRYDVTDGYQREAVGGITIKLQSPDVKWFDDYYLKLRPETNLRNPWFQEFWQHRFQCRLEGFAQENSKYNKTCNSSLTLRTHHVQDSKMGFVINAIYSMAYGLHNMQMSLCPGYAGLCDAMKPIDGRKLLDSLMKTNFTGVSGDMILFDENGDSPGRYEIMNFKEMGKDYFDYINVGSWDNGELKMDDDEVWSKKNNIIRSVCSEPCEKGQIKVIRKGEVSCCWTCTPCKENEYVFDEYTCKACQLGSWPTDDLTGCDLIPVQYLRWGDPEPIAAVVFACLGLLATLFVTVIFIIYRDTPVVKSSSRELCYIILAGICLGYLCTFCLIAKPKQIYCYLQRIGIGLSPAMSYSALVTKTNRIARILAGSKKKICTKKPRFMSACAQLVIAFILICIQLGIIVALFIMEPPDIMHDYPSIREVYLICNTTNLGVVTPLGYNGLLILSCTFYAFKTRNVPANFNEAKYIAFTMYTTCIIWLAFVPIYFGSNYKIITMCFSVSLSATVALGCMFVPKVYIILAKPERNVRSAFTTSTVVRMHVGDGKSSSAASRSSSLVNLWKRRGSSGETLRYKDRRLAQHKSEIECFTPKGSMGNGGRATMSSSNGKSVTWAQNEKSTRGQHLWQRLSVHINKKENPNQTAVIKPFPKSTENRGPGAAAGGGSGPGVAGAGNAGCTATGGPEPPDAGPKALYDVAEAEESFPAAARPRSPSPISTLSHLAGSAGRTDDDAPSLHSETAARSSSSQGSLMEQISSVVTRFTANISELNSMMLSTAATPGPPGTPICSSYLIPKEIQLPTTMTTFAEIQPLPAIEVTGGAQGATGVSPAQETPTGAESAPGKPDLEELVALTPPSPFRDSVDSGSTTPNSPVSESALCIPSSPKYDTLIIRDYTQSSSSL

Work on O=C(C#Cc1ccccc1)N1CCN(c2ncccc2[N+](=O)[O-])CC1 [Compound AA] yielded an IC50 of 8.9 ± 4.8 nM.
